Results on 4 compounds are retold here after ChEMBL document CHEMBL1156964, “Bioconjugates of curcumin display improved protection against glutathione depletion mediated oxidative stress in a dopaminergic neuronal cell line: Implications for Parkinson's disease” (2010).

Active and inactive are the calls of the source. No cut-off for these calls is given here.

As a reminder, the inhibition is the share of the control response that was lost under treatment.

Test [1] in a line: Neuroprotective effect against rat N27 cells assessed as reduction of BSO-induced increase in hydrogen peroxide level at 0.5 uM treated 24 hrs after BSO withdrawal using FOX1 reagent relative to control. The format is functional. Also noted: scale not given: the % may be the effect or the level left.
Test [2] is described as follows: Neuroprotective effect in rat N27 cells assessed as Inhibition of BSO-induced GSH depletion at 0.5 uM after 24 hrs by DTNB recycling method relative to control. The format is functional. The note with it: N27, 24 h.
The nature of test [3]: Neuroprotective effect against rat N27 cells assessed as reduction of BSO-induced increase in MDA level at 0.5 uM after 24 hrs by thiobarbituric acid reaction method relative to control. The format is functional. Also noted: scale not given: the % may be the effect or the level left.
The subject of test [4] is N27. The test is described as follows: Increase in ROS level in rat N27 cells at 0.5 uM by DCFDA fluorescence assay. It counts as functional, cell-based.
For test [5], the system named is N27. Put plainly: Neuroprotective effect against rat N27 cells assessed as reduction of BSO-induced reduction of GST activity at 0.5 uM relative to control. The format is functional, cell-based.
Test [6] in a line: Increase in GSH level in rat N27 cells at 0.5 uM after 24 hrs. The format is functional.
Test [7] in a line: Neuroprotective effect against rat N27 cells assessed as reduction of BSO-induced increase in reactive oxygen species level at 0.5 uM after 24 hrs by DCFDA fluorescence assay relative to control. Set-up: scale not given: the % may be the effect or the level left. It counts as functional.
The subject of test [8] is N27. The test is described as follows: Neuroprotective effect against rat N27 cells assessed as reduction of BSO-induced reduction of GST activity at 0.5 uM treated 24 hrs after BSO withdrawal relative to control. The format is functional, cell-based.
Test [9] is described as follows: Neuroprotective effect against rat N27 cells assessed as reduction of BSO-induced increase in MDA level at 0.5 uM by thiobarbituric acid reaction method after 24 hrs BSO withdrawal relative to control. It counts as functional. Also noted: scale not given: the % may be the effect or the level left.
The nature of test [10]: Neuroprotective effect against rat N27 cells assessed as reduction of BSO-induced increase in reactive oxygen species level at 0.5 uM treated 24 hrs after BSO withdrawal by DCFDA fluorescence assay relative to control. The format is functional. Also noted: scale not given: the % may be the effect or the level left.
A short description of test [11]: Neuroprotective effect against rat N27 cells assessed as reduction of BSO-induced increase in hydrogen peroxide level at 0.5 uM after 24 hrs using FOX1 reagent. Set-up: scale not given: the % may be the effect or the level left. It counts as functional.

As for `COc1cc(/C=C/C(=O)CC(=O)/C=C/c2ccc(OC(=O)[C@@H](N)C(C)C)c(OC)c2)ccc1OC(=O)[C@@H](N)C(C)C`, the Activity in [1] worked out at 80%; in test [3], 30%; in [6], 50%; in test [7] it was 60%; in test [9], 80%; in test [10] it was 70%. In addition, the inhibition at 0.5 µM in [2] worked out at 72%. In the test with N27 [4], the result was inactive. Further, the outcome in the test with N27 [5] and with N27 [8] was Active.

In the case of `COc1cc(/C=C/C(=O)CC(=O)/C=C/c2ccc(OC(=O)/C=C/C=C/c3ccc(O)c(O)c3)c(OC)c2)ccc1OC(=O)/C=C/C=C/c1ccc(O)c(O)c1`, the inhibition at 0.5 µM in [2] amounted to 78%. Also, the Activity in [3] was 50%; in [11], 50%; in test [6], 25%; in [7] it was 65%; in test [9] it was 75%; in test [10] it was 55%. For the same compound, in the test on N27 [4], the result was inactive. Besides, the result with N27 [5] and in the test on N27 [8] was Active.

In the case of `COc1cc(/C=C/C(=O)CC(=O)/C=C/c2ccc(O)c(OC)c2)ccc1O` [CURCUMIN], in [2], the inhibition at 0.5 µM was 78%. The Activity stood at 40% in [3]; 50% in test [11]; 30% in test [6]; 45% in test [7]; 65% in test [9]; 50% in [10]. Also, the result with N27 [4] was inactive. The result in the test with N27 [5] and in the test on N27 [8] was Active.

On to `COc1cc(/C=C/C(=O)CC(=O)/C=C/c2ccc(OC(=O)[C@@H](N)CCC(=O)O)c(OC)c2)ccc1OC(=O)[C@@H](N)CCC(=O)O`, for which the inhibition at 0.5 µM in [2] amounted to 83%. Further, the Activity was 50% in test [3]; 50% in test [11]; 64% in test [6]; 90% in test [7]; 90% in test [9]; 80% in test [10]. Also, the outcome in the test with N27 [4] was inactive. Further, the outcome in the test with N27 [5] and with N27 [8] was Active.
